Columns and labels:
[1] = biological target: aldose reductase of kidney (Canis lupus familiaris, UniProt A0A8I3P2L6); test: Inhibitory effect on aldose reductase of kidney; assay type: biochemical, dog; settings: read-out: Degree of inhibition for aldose reductase (%)
Summary of the method: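 Aldose reductase was purified from dog kidney medulla. Activity was measured as NADPH consumption (A340 decrease) with DL-glyceraldehyde substrate and 3mM NADPH stock, in 0.1M phosphate buffer pH 6.2 at 25°C. One unit consumes 1 µmole NADPH/min.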

[2] = test system: T cell; test: Test on T cell blast transformation reaction (1), spleen cells of treated mice; assay type: in vivo, C3H/He mouse; settings: for Relative activity (%): no administration = 100
Description: In the same manner as in Example 36, OPQ was administered to C3H/He mouse and the mouse was bred. Dosage of OPQ for one administration per one mouse was 0.2 ml of OPQ solution containing 0.5 mg/ml of OPQ for group B and 0.2 ml of the solution containing 1.0 mg/ml of OPQ for group C and 0.2 ml of physiological saline was administered for group A.
On the 8th day from starting of experiment, mouse was anesthetized with ether and blood was drawn from carotid artery and spleen was aseptically extracted.
Cells of the spleen of respective groups were broken up and these cells were floated on tris-NH4Cl hemolytic solution warmed to 37°C and left for 5 minutes at 37°C to hemolyze erythrocytes, followed by washing twice with cold Hanks solution. The cells were suspended in RPMI medium at 4 x 10^6 cells/ml and the suspension was put in a flat bottom microplate of 96 holes. Culture was carried out in the air containing 5 % of CO2 at 37°C using concanavalin A (Type IV Sigma C2010) in an amount of 0.5 µg/ml or 2 µg/ml as mitogen. After 63 hours from starting of culture, ^3H-thymidine was added in an amount of 2.5 µci/ml and culturing was carried out for further 9 hours. Thereafter, cells were gathered on a glass fiber filter by cell harvester and ^3H on this filter was measured by a liquid scintillation counter.
As control, same four culturings were conducted under the same conditions without adding concanavalin A.
Values in the table are average values of intake amount (cpm) of ^3H in culture under four same conditions.
(§1) In Examples 36 - 40, macrophage activity was examined according to chemotaxis of peritoneal macrophage (literature 1) and activity of T cell and that of B cell were examined according to blast transformation reaction using concanavalin A and lipopolysaccharide, (LPS) as mitogen (literature 2). Literature 1: "Function of Macrophage and Method of Measurement of Function", pages 61-65 1985), edited by Educational Committee of Japan Bacteriological Society and published from Saikon Shuppan Co.) Literature 2: "New Method of Searching of Function of Lymphocytes", pages 350-355 (1987) edited by Junichi Yada and Michio Fujiwara and published from Chugai Igaku Co.

[3] = test system: T cell; test: Test on T cell blast transformation reaction (2), compound added to spleen cell culture; assay type: cell-based, C3H/He mice; settings: for Relative activity (%): Concanavalin A 1.0 µg/ml, without compound = 100
Description: Cells of spleen were obtained in the same manner as in Example 38 except that OPQ was not administered using five C3H/He mice (male, 7 weeks old, average body weight of 20 g, supplied by Japan Charles Liver Co.).
Then, the cells were suspended in RPMI medium at 4 x 10^6 cells/ml and the suspension was put in a flat bottom microplate of 96 holes. Culture was carried out in the air containing 5 % of CO2 at 37°C using 1.0 µg/ml of concanavalin A as mitogen with addition of 0.5 or 2.0 µg/ml of OPQ. After 63 hours from starting of culture, ^3H-thymidine was added at 2.5 µCi/ml and culture was carried out for further 9 hours. Thereafter, cells were gathered on a glass fiber filter by cell harvester and ^3H on the filter was measured by a liquid scintillation counter.
As control, same four cultures were conducted under respective conditions without adding concanavalin A or OPQ. Values in the table are average values of intake amount (cpm) of ^3H in culture under four same conditions. Activity acceleration effect of OPQ was not recognized when concanavalin A was not added, but activity acceleration effect of OPQ was recognized when concanavalin A was added.
as §1

For `O=C(O)c1cc(C(=O)O)c2c(n1)c1ncoc1c1cc(C(=O)O)[nH]c12` [OPQ, oxazopyrroloquinoline], the inhibition at 0.1 µM ([1]; concentration 1x10^-7 M) was 51.9%, the inhibition at 0.2 µM ([1]; concentration 2x10^-7 M) was 62.1% and the inhibition at 0.05 µM ([1]; concentration 5x10^-8 M) was 39.3%. The “Relative activity (%)” value ([2]; 5 mg/kg mouse x 7 days, Concanavalin A 0.5µg/ml) was 137%, the “Relative activity (%)” value ([2]; 5 mg/kg mouse x 7 days, Concanavalin A 2.0µg/ml) was 146% and the “intake amount (cpm) of ^3H” value ([2]; 5 mg/kg mouse x 7 days, concanavalin 0 µg/ml, no administration 7312) was 10796 cpm. The “intake amount (cpm) of ^3H” value ([2]; 5 mg/kg mouse x 7 days, concanavalin 0.5 µg/ml, no administration 11637) was 15942 cpm, the “intake amount (cpm) of ^3H” value ([2]; 5 mg/kg mouse x 7 days, concanavalin 2 µg/ml, no administration 96188) was 140376 cpm and the “Relative activity (%)” value ([2]; 10 mg/kg mouse x 7 days, Concanavalin A 0.5µg/ml) was 189%. The “Relative activity (%)” value ([2]; 10 mg/kg mouse x 7 days, Concanavalin A 2.0µg/ml) was 150%, the “intake amount (cpm) of ^3H” value ([2]; 10 mg/kg mouse x 7 days, concanavalin 0 µg/ml, no administration 7312) was 9124 cpm and the “intake amount (cpm) of ^3H” value ([2]; 10 mg/kg mouse x 7 days, concanavalin 0.5 µg/ml, no administration 11637) was 21965 cpm. The “intake amount (cpm) of ^3H” value ([2]; 10 mg/kg mouse x 7 days, concanavalin 2 µg/ml, no administration 96188) was 144171 cpm, the “Relative activity (%)” value ([3]; 0.5 µg/ml added to culture) was 146% and the “intake amount (cpm) of ^3H” value ([3]; 0.5 µg/ml added to culture, concanavalin 0 µg/ml, without compound 2077) was 1946 cpm. The “intake amount (cpm) of ^3H” value ([3]; 0.5 µg/ml added to culture, concanavalin 1.0 µg/ml, without compound 89091) was 130775 cpm, the “Relative activity (%)” value ([3]; 2.0 µg/ml added to culture) was 130% and the “intake amount (cpm) of ^3H” value ([3]; 2.0 µg/ml added to culture, concanavalin 0 µg/ml, without compound 2077) was 2031 cpm. The “intake amount (cpm) of ^3H” value ([3]; 2.0 µg/ml added to culture, concanavalin 1.0 µg/ml, without compound 89091) was 116093 cpm.

Source: patent EP0429333B1, “Process for producing oxazopyrroloquinolines, novel oxazopyrroloquinolines, and use of oxazopyrroloquinolines” (priority 1989, dated 1991)
